Assay results from patent publication US6399580B1, “Methods and compositions for stimulating tissue growth and epithelial moisturization” (The Regents of the University of California, priority 1994, dated 2002).

Tests used:
[1] = tested on: cultured human keratinocytes; experiment: [3H]-thymidine incorporation and DNA content in cultured human keratinocytes; type: cell-based; conditions: 24 hours, FIG. 12
Protocol: To determine the ability of exogenous glucosylceramides (GlcCER) to stimulate epidermal proliferation, we applied various concentrations of GlcCER to cultural human keratinocytes (third passage). Keratinocytes were isolated from human neonatal foreskins by a modification of the method of Pittelkow, M. R. and Scott, R. E. ( (1986) Proc. Mayo Clin. 61:771-777) Cells were added to 100 mm plastic Petri dishes at a density of 1 to 2×10^4 cells/cm^2, and grown initially in 10mls of Keratinocyte Growth Medium (KGM) (Clonetics, San Diego, Calif.) with 0.07 mM calcium. The cultures were maintained at 35° C. under 5% CO2 in air, with medium changes performed three times weekly. After the cells reached 70%-80% confluence, they were switched to KGM medium containing 1.2 mM calcium, and harvested at one week post-confluence. GlcCER was added for the last 24 hours of culture and ^3H-thymidine (1 μCi/ml) was added one-to-three hours prior to harvesting of cells for measurement of DNA synthesis and DNA content. (Proksch, E., et al., J. Clin. Invest. 87:1668-1673 (1991).
Using the method described in Example 5, incorporation of [^3H]-thymidine and total DNA content were measured in cultured human keratinocytes (CHK) grown in serum-free keratinocyte growth medium (KGM) supplemented with 0.07 mM .calcium. Cultured cell were further supplemented as indicated, with ceramide (Cer; 5 or 10 μM), glucosylceramide (GlcCER; 1.25 or 2.5 μM), or a combination of ceramide and glucosylceramide (10 and 1.25 μM, respectively).
CHK cells were grown in serum-free KGM supplemented both with 0.07 mM calcium and 10 μM ceramide (CER). Increasing concentrations of glucosylceramide were added (2.5 to 10 μM), and both [^3H]-thymidine (1 μCi/ml) and [^14C]-leucine (1 μCi/ml) incorporation assays were performed.
CHK cells were grown (as in Example 6)in serum-free KGM (0.07 mM calcium) and supplemented with increasing concentrations of ceramide (CER) alone (dark bars), glucosylceramide (GlcCer) alone (back row), or the combination of ceramide (10 μM) with increasing glucosylceramide (front row). […] Glucosylceramide alone again stimulated thymidine incorporation (>20%) at low concentrations (1.25 and 2.5 μM).
CHK cells were grown (as in Example 6) in serum-free KGM ([…]) supplemented with glucosylceramide (GlcCER) alone, or in combination with the β-glucocerebrosidase-inhibitor, CBE (3 or 10 μM) (FIG. 12). Incorporation of [^3H]-thymidine was measured at 24 hours following supplementation, and values are reported as percent of unsupplemented controls (mean ±S.D.; n>6). […] A low CBE concentration (3 μM) was ineffective.

murine epidermis = experiment: Epidermal DNA synthesis, [3H]-thymidine incorporation in vivo; set-up: species or system mouse
Protocol: To assess the effects of a topical β-glucocerebrosidase inhibitor, conduritol-B-epoxide (CBE) in epidermal DNA synthesis two slightly different dosage protocols have been employed. In all cases, mice were treated topically with 20 μl to 40 μl of 250 nmol/μl CBE bid for 2-5 days on the right flank. On the last day, the mice were injected intraperitoneally with ^3H-thymidine (1 μCi/G body weight) diluted 1:10 in 100-200 μl isotonic NaCl. After one hour the mice were sacrificed. Whole skin was excised and subcutaneous fascia and fat were removed by scraped. Skin samples were placed dermis side downward onto 10 mM EDTA in phosphate buffered saline (PBS-CMF; pH 7.4) and incubated at 37° C. for 40 min. The skin was blotted dry with a tissue and epidermis removed by scraping with a surgical blade. The epidermis was minced into small pieces and placed in microcentrifuge vials. Samples were immediately snap frozen and stored in liquid nitrogen until immediately prior to preparation of the epidermal homogenates. 300 μl of 10 mM EDTA in PBS-CMF (pH 7.4) was added to all samples which then underwent tissue homogenization using Polytron (15 sec, ×2 on ice. Polytron tip was rinsed between each homogenization with 400 μl 10 mM EDTA in PBS-CMF. Rinses were combined with same original samples. Samples were sonicated twice for 10 sec on ice. 100 μl of 20% TCA was added and left for 10 min at 4° C. Samples were centrifuged at 2000×g at 4° C. for 5 min. The supernatant was discarded. 500 μl of 5% TCA was added and the samples were centrifuged at 2000×g at 4° C. for 5 min. The supernatant was discarded and this step was repeated again. The precipitate was resuspended in 1ml of 1N NaOH and vortexed. 400 μl or NaOH plus 400 μl of 1N HCl with 8ml Ecolume was used as a background blank. Vials were counted the following day.
We next determined whether the topical administration of structurally similar but less efficient β-glucosidase inhibitors would induce epidermal hyperproliferation. Animals were treated topically twice daily with either Conduritol-B-epoxide, Conduritol B (CB), or deoxynojirimycin (dNJM), each at 40 μl of 250 nmol/μl twice daily, as described in Example 10. After 24 hours, [^3H]-thymidine was injected intraperitoneally and incorporation of thymidine into DNA was determined (FIG. 26 A&B). […] This reduced activity is a result of the relative availability of these inhibitors to in vivo tissues.
Animals were treated as described in Example 10.
We next determined whether occlusion with a vapor-impermeable membrane would enhance the effects of a β-glucocerebrosidase inhibitor on epidermal DNA synthesis. […] After 24 hrs animals were injected with [^3H]-thymidine, and incorporation into DNA was determined (Proksch, et. al., J. Clin. Invest. 87:1668-1673, 1991).

hairless mouse skin = experiment: Appearance and texture of treated skin; type: in vivo; conditions: application of CBE
Protocol: To determine whether inhibitors of β-glucocerebrosidase would cause more profound effects than applications of exogenous GlcCER alone (examples 5&6), we next applied the specific, suicide inhibitor, bromoconduritol-B-epoxide (BrCBE) to intact hairless mouse skin (Simonsen Laboratories, Gilroy, Calif.) (Holleran, W. M. et al., J. Clin. Invest. (1993) 91:1656-1664). BrCBE (325 nmol in 20 μl propylene glycol:ethanol, 7:3 vols) was applied once daily for 0-14 days. (Holleran, W. M. et al. (1994) J. Clin. Inv. 93:1756-1764)

O[C@H]1[C@H](O)[C@@H](O)[C@@H]2O[C@@H]2[C@@H]1O (racemic) [CBE, conduritol-B-epoxide]
inhibition of thymidine incorporation caused by higher glucosylceramide concentrations ([1]; CBE 3 μM with GlcCER): ineffective | inhibition of thymidine incorporation caused by higher glucosylceramide concentrations ([1]; CBE 10 μM with GlcCER): blocked the inhibition | DNA synthesis, CBE, GlcCER and occlusion (murine epidermis; latex wrap, 24 hrs): increased DNA synthesis | epidermal DNA synthesis ([3H]-thymidine incorporation) (murine epidermis; topical 40 μl of 250 nmol/μl twice daily, after 24 hours): potent stimulation | DNA synthesis rates, CBE+occlusion vs CBE alone (murine epidermis; water-vapor impermeable latex wrap, 24 hrs, 4 separate studies): equivalent or higher | thickness, firmness and pliability of murine skin (hairless mouse skin): increased
